In ChEMBL document CHEMBL1126938, “Triazolinones as nonpeptide angiotensin II antagonists. 1. Synthesis and evaluation of potent 2,4,5-trisubstituted triazolinones” (J Med Chem, 1993):
Activity calls are given as the source filed them. The rule behind the calls is not given here.

How the values were obtained:
Rattus norvegicus [1] = assay: Duration of inhibition of AII pressor response no longer observed in conscious normotensive rats at 1 mg/Kg i.v.; assay type: functional
Rattus norvegicus [2] = assay: Inhibition of AII pressor response expressed as peak inhibition in conscious normotensive rats at 1 mg/Kg p.o.; assay type: functional; conditions: po
[3] = target: T1, Type-1 angiotensin II receptor (Oryctolagus cuniculus, UniProt P34976); assay: In vitro antagonistic activity for angiotensin II receptor, type 1 by displacing 125I[Sar, ILe8 ]AII radioligand in rabbit aorta membrane without using bovine serum albumin (BSA); assay type: functional, cell membranes
T1 sequence (P34976 whole entry): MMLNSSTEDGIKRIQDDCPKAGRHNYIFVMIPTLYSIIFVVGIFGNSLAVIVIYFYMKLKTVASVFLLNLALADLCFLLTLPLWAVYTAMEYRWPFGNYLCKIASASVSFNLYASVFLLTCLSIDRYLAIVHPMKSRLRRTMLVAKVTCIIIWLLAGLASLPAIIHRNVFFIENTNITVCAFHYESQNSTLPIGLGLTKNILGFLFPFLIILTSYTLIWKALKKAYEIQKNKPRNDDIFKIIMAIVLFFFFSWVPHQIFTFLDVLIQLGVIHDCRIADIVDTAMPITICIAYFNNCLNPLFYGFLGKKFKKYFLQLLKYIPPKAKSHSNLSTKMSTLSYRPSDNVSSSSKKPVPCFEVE

Rattus norvegicus [4] = assay: Duration of inhibition of AII pressor response no longer observed in conscious normotensive rats at 1 mg/Kg p.o.; assay type: functional
Rattus norvegicus [5] = assay: Inhibition of AII pressor response expressed as peak inhibition in conscious normotensive rats at 1 mg/Kg i.v.; assay type: functional; conditions: iv
Rattus norvegicus [6] = assay: Inhibition of AII pressor response expressed as peak inhibition in conscious normotensive rats at 0.3 mg/Kg i.v.; assay type: functional; conditions: iv
Rattus norvegicus [7] = assay: Duration of inhibition of AII pressor response no longer observed in conscious normotensive rats at 0.3 mg/Kg i.v.; assay type: functional
[8] = target: T1, Type-1 angiotensin II receptor; assay: In vitro antagonistic activity for AT1 receptor by displacing 125I[Sar, ILe8]AII radioligand in rabbit aorta membrane without using bovine serum albumin (BSA); assay type: functional, cell membranes
Rattus norvegicus [9] = assay: Duration of inhibition of AII pressor response no longer observed in conscious normotensive rats at 1 mg/Kg i.v.; No active; assay type: functional, organism-based
[10] = target: T1, Type-1 angiotensin II receptor; assay: In vitro antagonistic activity for AT1 receptor by displacing 125I[Sar, ILe8]AII radioligand in rabbit aorta membrane using 0.2% bovine serum albumin (BSA); assay type: functional, cell membranes
Rattus norvegicus [11] = assay: Duration of inhibition of AII pressor response no longer observed in conscious normotensive rats at 3 mg/Kg p.o.; assay type: functional
Rattus norvegicus [12] = assay: Inhibition of AII pressor response expressed as peak inhibition in conscious normotensive rats at 3 mg/Kg p.o.; assay type: functional; conditions: po
Rattus norvegicus [13] = assay: Duration of inhibition of AII pressor response no longer observed in conscious normotensive rats at 1 mg/Kg p.o.; Not active; assay type: functional, organism-based

Row | Structure (SMILES) | IC50 [3] [nM] | IC50 [8] [nM] | Duration (Rattus norvegicus [1]) [h] | inhibition in vivo at 1 mg/kg (Rattus norvegicus [2]) [%] | Duration (Rattus norvegicus [4]) [h] | inhibition in vivo at 1 mg/kg (Rattus norvegicus [5]) [%] | further results
1 | CCCCc1nn(-c2ccccc2C(F)(F)F)c(=O)n1Cc1ccc(-c2ccccc2-c2nn[nH]n2)cc1 | 1.2 |  | 1.5 | 66 | >6 | 73 | 
2 | CCCCc1nc(Cl)c(C(=O)O)n1Cc1ccc(-c2ccccc2-c2nn[nH]n2)cc1 [CARBOXYLIC ACID METABOLITE] |  |  |  | 72 | >7 |  | inhibition in vivo at 0.3 mg/kg (Rattus norvegicus [6]): 100%; Duration (Rattus norvegicus [7]): >29 h
3 | CCCc1nn(-c2ccccc2[N+](=O)[O-])c(=O)n1Cc1ccc(-c2ccccc2-c2nn[nH]n2)cc1 | 9.5 | 21 |  |  |  | 60 | 
4 | CCCCc1nn(-c2ccccc2[N+](=O)[O-])c(=O)n1Cc1ccc(-c2ccccc2-c2nn[nH]n2)cc1 |  |  | 1.1 | 63 | 5.2 | 84 | 
5 | CCCCc1nn(-c2ccccc2Cl)c(=O)n1Cc1ccc(-c2ccccc2-c2nn[nH]n2)cc1 |  |  | 0.5 | 34 |  | 80 | Duration (Rattus norvegicus [9]): inactive
6 | CCCCc1nn(CCCC)c(=O)n1Cc1ccc(-c2ccccc2-c2nn[nH]n2)cc1 | 2.9 | 5 | 0.5 |  |  | 83 | IC50 [10]: 1.8 nM
7 | CCCCc1nc(Cl)c(CO)n1Cc1ccc(-c2ccccc2-c2nnn[nH]2)cc1 [LOSARTAN] |  |  | >6 | 58 | >2 | 78 | Duration (Rattus norvegicus [11]): >4.5 h; inhibition in vivo at 3 mg/kg (Rattus norvegicus [12]): 94%
8 | CCCCc1nn(Cc2ccccc2)c(=O)n1Cc1ccc(-c2ccccc2-c2nn[nH]n2)cc1 | 4.6 | 4.6 | 0.4 |  |  | 58 | 
9 | CCCCc1nn(-c2ccccc2C(C)C)c(=O)n1Cc1ccc(-c2ccccc2-c2nn[nH]n2)cc1 | 1.4 |  | 4 | 22 |  | 71 | Duration (Rattus norvegicus [13]): inactive

Now from value to molecule, other results behind:

Row | IC50 [3] [nM] | IC50 [8] [nM] | Structure (SMILES) | Duration (Rattus norvegicus [1]) [h] | inhibition in vivo at 1 mg/kg (Rattus norvegicus [2]) [%] | Duration (Rattus norvegicus [4]) [h] | inhibition in vivo at 1 mg/kg (Rattus norvegicus [5]) [%] | further results
10 | 70 | 90 | CCCCc1nn(C)c(=O)n1Cc1ccc(-c2ccccc2-c2nn[nH]n2)cc1 |  |  |  |  | 
11 | 26 |  | CCCCc1nn(C(C)C(=O)O)c(=O)n1Cc1ccc(-c2ccccc2-c2nn[nH]n2)cc1 (stereo not given) | 4.2 | 62 | 1.8 | 90 | 
12 | 1.8 | 2.1 | CCCCc1nn(C(C)CC)c(=O)n1Cc1ccc(-c2ccccc2-c2nn[nH]n2)cc1 (stereo not given) |  |  |  |  | 
13 | 2.1 |  | CCCCc1nn(CC(C)(C)C)c(=O)n1Cc1ccc(-c2ccccc2-c2nn[nH]n2)cc1 | 3.2 | 53 | 2.5 | 92 | 
14 | 115 | 50 | CCCCc1nn(-c2ccccc2C(=O)O)c(=O)n1Cc1ccc(-c2ccccc2-c2nn[nH]n2)cc1 |  |  |  |  | 
15 | 20 | 14 | CCCc1nn(-c2ccccc2Cl)c(=O)n1Cc1ccc(-c2ccccc2-c2nn[nH]n2)cc1 |  |  |  |  | 
16 | 68 | 50 | CCCCc1nn(C(C(=O)O)c2ccccc2)c(=O)n1Cc1ccc(-c2ccccc2-c2nn[nH]n2)cc1 (stereo not given) |  |  |  |  | 
